Article PMC5775429, “LY2087101 and dFBr share transmembrane binding sites in the (α4)3(β2)2 Nicotinic Acetylcholine Receptor” (Scientific Reports, 2018)

What was measured:
(α4)2(β2)3 nAChR = target: T1, (α4)2(β2)3 nAChR (Homo sapiens, UniProt P17787+P43681); assay: Two-electrode voltage-clamp of ACh-induced currents in Xenopus oocytes; assay type: cell-based
T1 construct: expressed in transfected cells; host or cells: Xenopus laevis oocytes injected with cRNA
Description: (§1) To begin to characterize LY2087101 interaction with the heteropentameric α4β2 nAChRs, we examined the selectivity of LY2087101 for the two α4β2 nAChR isoforms; high-agonist sensitivity (α4)2(β2)3 and low-agonist sensitivity (α4)3(β2)2 nAChRs. Xenopus oocytes were injected with α4 and β2 subunits RNAs at ratios 8:1 and 1:8 to favor expression of (α4)3(β2)2 and (α4)2(β2)3 nAChRs, respectively.
(§2) Ovarian lobules were surgically harvested from oocytes-positive female Xenopus laevis (NASCO, Fort Atkinson, WI) according to an animal use protocol approved by the Texas A&M Health Sciences Center Institutional Animals Care and Use Committee. The Texas A&M Health Sciences Center Research Facility is registered as an animal research facility with the United States Department of Agriculture and is fully accredited by the American Association for Accreditation of Laboratory Animal Care (AAALAC). For oocytes defolliculation, ovarian lobes were treated with 3 mg/ml collagenase type 2 (Worthington Biomedical, Lakewood, NJ) in Ca + 2-free buffer (85 mM NaCl, 2.5 mM KCl, 1 mM MgCl2, 5 mM HEPES, pH 7.6). Collagenase treatment was allowed to proceed for 3 hours at room temperature with gentle shaking then oocytes were washed several times with buffer to remove collagenase then with ND96-gentamicine buffer. Healthy Stage V and VI oocytes were visually selected and maintained at 18 °C in modified ND96-gentamicine buffer (96 mM NaCl, 2 mM KCl, 1.8 mM CaCl2, 1 mM MgCl2, 5 mM HEPES, 50 µg/ml gentamicin, pH 7.6). Oocytes were injected with 50–100 ng of the desired nAChR subunits cRNA mix at ratios of 8α:1β or 1α:8β to express nAChRs with subunit stoichiometries of 3α:2β (low agonist sensitivity) or 2α:3β (high agonist sensitivity), respectively.
(§3) Oocytes were continuously perfused with recording buffer (100 mM NaCl, 2 mM KCl, 1 mM CaCl2, 0.8 mM MgCl2, 1 mM EGTA, 10 mM Hepes, pH 7.5) except during periods of drug applications.

(α4)3(β2)2 nAChR = target: T2, (α4)3(β2)2 nAChR (Homo sapiens, UniProt P17787+P43681); assay: as above; assay type: cell-based
T2 construct: expressed in transfected cells; host or cells: Xenopus laevis oocytes injected with cRNA
Description: as §1, §2, §3

[1] = ACh alone (control), normalized to 1 mM ACh
[2] = in the presence of 1 µM LY2087101

T1 sequence (P43681 29-627 limits assumed): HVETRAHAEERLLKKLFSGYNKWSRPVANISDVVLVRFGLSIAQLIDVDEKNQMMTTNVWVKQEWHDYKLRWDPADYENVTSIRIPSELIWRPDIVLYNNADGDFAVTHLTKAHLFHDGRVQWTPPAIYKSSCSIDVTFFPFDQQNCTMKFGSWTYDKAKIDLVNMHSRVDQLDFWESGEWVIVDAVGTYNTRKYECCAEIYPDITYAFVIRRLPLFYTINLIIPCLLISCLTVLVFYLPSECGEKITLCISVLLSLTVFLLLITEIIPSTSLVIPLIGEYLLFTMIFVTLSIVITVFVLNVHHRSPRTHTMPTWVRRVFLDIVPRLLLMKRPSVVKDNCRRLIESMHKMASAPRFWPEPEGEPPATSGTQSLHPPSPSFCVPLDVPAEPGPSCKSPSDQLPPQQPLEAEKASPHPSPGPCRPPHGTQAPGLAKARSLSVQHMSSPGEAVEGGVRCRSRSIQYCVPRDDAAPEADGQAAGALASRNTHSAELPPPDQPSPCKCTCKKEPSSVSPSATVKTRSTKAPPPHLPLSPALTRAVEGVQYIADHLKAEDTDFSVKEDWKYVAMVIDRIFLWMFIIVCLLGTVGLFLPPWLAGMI
T1 sequence (P17787 26-502): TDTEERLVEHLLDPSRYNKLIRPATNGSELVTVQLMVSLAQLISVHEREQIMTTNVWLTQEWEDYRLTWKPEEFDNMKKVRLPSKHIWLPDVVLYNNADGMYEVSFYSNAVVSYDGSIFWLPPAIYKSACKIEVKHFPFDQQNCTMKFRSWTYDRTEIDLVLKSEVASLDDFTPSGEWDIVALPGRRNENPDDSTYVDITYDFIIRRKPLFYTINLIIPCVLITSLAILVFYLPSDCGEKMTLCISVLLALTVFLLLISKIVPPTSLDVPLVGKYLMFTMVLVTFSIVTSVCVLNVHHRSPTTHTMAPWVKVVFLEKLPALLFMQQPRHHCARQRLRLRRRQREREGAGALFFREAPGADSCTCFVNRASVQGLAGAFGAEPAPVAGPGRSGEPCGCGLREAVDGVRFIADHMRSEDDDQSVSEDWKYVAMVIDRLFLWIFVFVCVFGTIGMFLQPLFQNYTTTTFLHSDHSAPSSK
T2 sequence (P43681 29-627 limits assumed): as the sequence (P43681 29-627 limits assumed) above
T2 sequence (P17787 26-502): as the sequence (P17787 26-502) above

Question: Which “ACh h (Hill coefficient)” value ((α4)2(β2)3 nAChR; ACh alone (control)) does the source give for `CC(=O)OCC[N+](C)(C)C` [ACh, Acetylcholine chloride] here?
Answer: The value was 1.2 ± 0.03.

Question: What about the “ACh Imax” value ((α4)2(β2)3 nAChR; [1]) of the same compound?
Answer: Its value is 100 ± 1%.

Question: And the “ACh h (Hill coefficient)” value ((α4)2(β2)3 nAChR; [2])?
Answer: Its value is 1.0 ± 0.04.

Question: What about the “ACh h (Hill coefficient)” value ((α4)3(β2)2 nAChR; ACh alone (control)) of the same compound?
Answer: Its value is 0.66 ± 0.06.

Question: What about the “ACh Imax” value ((α4)3(β2)2 nAChR; [1]) of the same compound?
Answer: Its value is 117 ± 6%.

Question: And the “ACh h (Hill coefficient)” value ((α4)3(β2)2 nAChR; [2])?
Answer: Its value is 0.7 ± 0.1.
